Experimental findings from US9447078B2, “Substituted heterocyclic compounds for disease treatment” (Acucela Inc., priority 2012, dated 2016) are described below.

The target of the experiment is T1, isomerase (Mus musculus, UniProt Q91ZQ5).
T1 construct: from tissue; host or cells: eyes of living CD-1 (and Balb/c) mice, endogenous protein
T1 sequence (Q91ZQ5 1-533): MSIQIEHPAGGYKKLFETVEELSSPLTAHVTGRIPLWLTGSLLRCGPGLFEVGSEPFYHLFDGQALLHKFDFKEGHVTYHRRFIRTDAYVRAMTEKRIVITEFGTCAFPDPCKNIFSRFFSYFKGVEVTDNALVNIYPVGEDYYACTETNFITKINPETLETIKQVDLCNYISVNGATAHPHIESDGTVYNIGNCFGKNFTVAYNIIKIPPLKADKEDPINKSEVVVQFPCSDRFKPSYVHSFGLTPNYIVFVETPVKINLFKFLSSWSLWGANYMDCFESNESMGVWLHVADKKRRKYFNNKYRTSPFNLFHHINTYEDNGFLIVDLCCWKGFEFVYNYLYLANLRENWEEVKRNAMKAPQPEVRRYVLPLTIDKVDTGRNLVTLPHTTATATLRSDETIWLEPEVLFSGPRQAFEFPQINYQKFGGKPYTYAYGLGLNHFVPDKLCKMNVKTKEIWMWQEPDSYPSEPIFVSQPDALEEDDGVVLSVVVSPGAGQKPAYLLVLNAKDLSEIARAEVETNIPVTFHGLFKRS
The experiment can be described thus: In vivo murine isomerase assay (recovery of 11-cis-retinal after photobleaching). The following applies: po, mice, oral gavage. Here is the method: The capability of compounds described herein to inhibit isomerase was determined by an in vivo murine isomerase assay. Brief exposure of the eye to intense light (“photobleaching” of the visual pigment or simply “bleaching”) is known to photo-isomerize almost all 11-cis-retinal in the retina. The recovery of 11-cis-retinal after bleaching was used to estimate the activity of isomerase in vivo. Delayed recovery, as represented by lower 11-cis-retinal oxime levels, indicates inhibition of isomerization reaction. Procedures were performed essentially as described by Golczak et al., Proc. Natl. Acad. Sci. USA 102:8162-67 (2005). See also Deigner et al., Science, 244: 968-71 (1989); Gollapalli et al., Biochim Biophys Acta. 1651: 93-101 (2003); Parish, et al., Proc. Natl. Acad. Sci. USA, 14609-13 (1998); Radu, et al., Proc Natl Acad Sci USA 101: 5928-33 (2004).
Six-week old dark-adapted CD-1 (albino) male mice were orally gavaged with compound (0.03-3 mg/kg) dissolved in 100 μl corn oil containing 10% ethanol (five animals per group). After 2-24 hours in the dark, the mice were exposed to photobleaching of 5,000 lux of white light for 10 minutes. The mice were allowed to recover 2 hours in the dark. The animals were then sacrificed by carbon dioxide inhalation. Retinoids were extracted from the eye and the regeneration of 11-cis-retinal was assessed at various time intervals.
All steps were performed in darkness with minimal redlight illumination (low light darkroom lights and red-filtered flashlights for spot illumination as needed) (see, e.g., Maeda et al., J. Neurochem 85:944-956, 2003; Van Hooser et al., J Biol Chem 277:19173-82, 2002). After the mice were sacrificed, the eyes were immediately removed and placed in liquid nitrogen for storage.
The eyes were placed in 500 μL of bis-tris propane buffer (10 mM, pH ˜7.3) and 20 μL of 0.8M hydroxile amine (pH˜7.3). The eyes were cut up into small pieces with small iris scissors and then thoroughly homogenized at 30000 rpm with a mechanical homogenizer (Polytron PT 1300 D) in the tube until no visible tissue remained. 500 μL of methanol and 500 μL of heptane were added to each tube. The tubes were attached to a vortexer so that the contents were mixed thoroughly for 15 minutes in room temperature. The organic phase was separated from the aqueous phase by centrifugation for 10 min at 13K rpm, 4° C. 240 μL of the solution from the top layer (organic phase) was removed and transferred to clean 300 μl glass inserts in HPLC vials using glass pipette and the vials were crimped shut tightly.
The samples were analyzed on an Agilent 1100 HPLC system with normal phase column: SILICA (Beckman Coutlier, dp 5 μm, […]). […] Loading volume for each sample was 100 μl; detection wavelength is 360 nm. The area under the curve for 11-cis retinal oxime was calculated by Agilent Chemstation software and was recorded manually. Data processing was performed using Prizm software.
Positive control mice (no compound administered) were sacrificed fully dark-adapted and the eye retinoids analyzed. Light (bleached) control mice (no compound administered) were sacrificed and retinoids isolated and analyzed immediately after light treatment.
A time course study was performed to determine the isomerase inhibitory activity of the test compound. Male Balb/c mice (4/group) receive test compound orally by gavage. The animals were then “photo-bleached” (5000 Lux white light for 10 minutes) at 2, 4, 8, 16 and 24 hours after dosing, and returned to darkness to allow recovery of the 11-cis-retinal content of the eyes. Mice were sacrificed 2 hours after bleaching, eyes were enucleated, and retinoid content was analyzed by HPLC.
Recovery control mice (vehicle-only treated) were light-treated and left to recover for 2 hours in the dark before sacrifice and analysis. Light control mice (vehicle only treated) were sacrificed for analysis immediately after photo-bleaching.

For orientation: inhibition means the percentage by which the read-out fell short of the control. A lower inhibition goes with a response near the control. Regarding `NCCC(O)c1ccc(OCC2CCCCC2)s1` (centres unmarked) [Example 1, 3-Amino-1-(5-(cyclohexylmethoxy)thiophen-2-yl)propan-1-ol], the inhibition at 1 mg/kg was 0% (Time 2 hour) and 0% (Time 4 hour).

As to `NCCC(O)c1cccc(/C=C/C2CCCCC2)n1` (centres unmarked) [Example 3, (E)-3-Amino-1-(6-(2-cyclohexylvinyl)pyridin-2-yl)propan-1-ol], 1 mg/kg produced 0% inhibition (Time 2 hour).

Where the note is “Time 2 hour”, `NCCC(O)c1cccc(CCC2CCCCC2)n1` (centres unmarked) [Example 4, 3-Amino-1-(6-(2-cyclohexylethyl)pyridin-2-yl)propan-1-ol] had an inhibition at 1 mg/kg of 29.3 ± 4.3%.

Compound `NCC[C@@H](O)c1ccc(OCC2CCCCC2)s1` [Example 5, (R)-3-Amino-1-(5-(cyclohexylmethoxy)thiophen-2-yl)propan-1-ol] displayed an inhibition at 1 mg/kg (Time 2 hour) of 0%.

With `NCC[C@@H](O)c1cccc(OCC2CCCCC2)n1` [Example 6, (R)-3-Amino-1-(6-(cyclohexylmethoxy)pyridin-2-yl)propan-1-ol], the inhibition at 1 mg/kg amounted to 68.9 ± 6.5% (Time 2 hour) and 37.7 ± 14.9% (Time 4 hour). Also, the inhibition at 3 mg/kg by setting is: (Time 2 hour) 93.2 ± 0.9%; (Time 4 hour) 85.5 ± 2.9%; (Time 6 hour) 62.3 ± 3.8%; (Time 8 hour) 30.8 ± 9.9%; (Time 16 hour) 0%; (Time 24 hour) 0%.

With `NCCC(O)c1cc(C#CC2(O)CCCCC2)cs1` (centres unmarked) [Example 9, 1-((5-(3-Amino-1-hydroxypropyl)thiophen-3-yl)ethynyl)cyclohexanol], where the note is “Time 2 hour”, the inhibition at 1 mg/kg was 8.6 ± 4.2%.

In turn, `NCCC(O)c1cc(OCC2CCCCC2)ccn1` (centres unmarked) [Example 12, 3-Amino-1-(4-(cyclohexylmethoxy)pyridin-2-yl)propan-1-ol] displayed an inhibition at 1 mg/kg (Time 2 hour) of 0%.

As for `CCCC(CCC)COc1cccc([C@H](O)CCN)n1` [Example 19, (R)-3-Amino-1-(6-((2-propylpentyl)oxy)pyridin-2-yl)propan-1-ol], the inhibition at 1 mg/kg by setting is: (Time 4 hour) 98.2 ± 2.3%; (Time 8 hour) 90.7 ± 3.3%.
